# Assay results published in patent US9546381B2, “Use of anticoagulants in the production of recombinant proteins in the milk of transgenic animals” (priority 2010, dated 2017).
# “And” between values parts separate entries of the source, which are not always exact repeats. Equal entries are not always repeated. Marks after values point to notes of the source that are not given here.
# Assays:
# [1] = test system: clots and flakes in the milk of rhFib transgenic cattle; test: Clot scoring of milk of rhFib transgenic cow and heifers during natural lactation; assay type: in vivo; settings: all five animals
# From the text: Recombinant human fibrinogen has been produced in the milk of transgenic cows for some years now. […] To score the level of clotting and to measure any effects, standards were set to determine whether treatment of the cows to reduce clotting was indeed effective. The standards are provided in Table I. Score level 0 is equal to normal milk from non-transgenic cows, whereas score level 4 equals a dramatic level of clotting and the milking machine is unable to extract the milk from the teat. CMT stands for ‘California Mastitis Test’ and is a standard cow side test that screens for the presence of mastitis, a known cause of milk clotting. When a cow is milked, the milk is collected in a so-called CMT paddle, which has four cups corresponding to the four quarters of the udder. To these cups, equal amounts of CMT solution (made up of a detergent to break down cell walls, a compound that reacts with the cellular DNA and a pH indicator; California Mastitis Test kit, TechniVet, Brunswick, Me.) is added after which the solution is swirled. The CMT solution provides an estimate of the number of cells in the milk (inflammatory cells due to infection by mastitis). […]
# A cow's udder has four quarters, each with their own teat. […] Therefore at each milking period, each quarter was given a clot score and recorded on her milk sheet form. […]
# [2] = Determination of warfarin dosing in non-transgenic non-lactating cows (PT time, adverse effects); assay type: in vivo, cattle
# Method: An initial experiment was performed to determine a dose range of warfarin in cattle. […] The doses therein range from 0.012 to 0.57 mg/kg.
# An initial baseline Prothombin time (PT time) and Hematocrit (Hct) were determined. For cow #4289 Hct was 38 and PT was 25.9 seconds. For cow #6685 Hct was 27 and PT time was 26.7 seconds. PT time is a laboratory assay that reflects the depression of vitamin K dependent Factors II, -VII and -X. The PT times were used to determine the final dosing. The PT time test that is generally used in the art, looks at coagulation factors Factor I (fibrinogen), Factor II (prothrombin), Factor V, Factor VII and Factor X, that are all involved in clotting. The test measures the time it takes for a patient's blood to clot. […] The Hct value is helpful to determine if the animal is becoming anemic (i.e. blood loss that would not be grossly evident). In general, Hct is not checked unless one is concerned that blood loss is occurring.
# Initially a dose necessary to double the baseline PT times was to be determined and then the dose was to be increased to monitor for adverse affects. It was decided that if the PT levels began to be prolonged over 2.5 times baseline, or Hct fell below 15% the dose would be decreased. Likewise, it was held that the dose would be decreased or discontinued if any of the following disorders would appear: hematomas, anemia, epistaxis, hematemesis, hematuria, melena, hemathrosis, hemothrax, weakness or hematochezia, or bleeding within the udder. Therapy with vitamin K1 and whole blood would be initiated if there was evidence of […] bleeding.
# Moreover, and for the same reason, pregnant animals were also not treated with warfarin.
# The dose was increased by 10 mg/day until a dose of 100 mg/day was given (˜0.14 mg/kg). Then, this dose was maintained for 12 days. […] Therefore the following adjustments were made: First, the animal was sedated with xylazine, and second, blood was only collected from the jugular vein while the animal's head was tightly restrained. The dose was increased to 120 mg/day (˜0.17 mg/kg) for 17 days.
# It took 6 days of therapy for the PT times to double. […] For this reason, this dose of approximately 0.18 mg/kg was then considered unsafe for use in the transgenic rhFib cows.
# [3] = test system: recombinant human fibrinogen (rhFib); test: ELISA of rhFib concentration in the milk of warfarin-treated transgenic heifers; settings: for rhFib level: ELISA, lines = day, warfarin started on day 1
# [4] = for 5 days; cited from earlier work
# [5] = test system: clots and flakes in the milk of transgenic rhFib cattle; test: Clot scoring of milk of transgenic rhFib cattle during induced lactation; assay type: in vivo; parameters: key to clot scores / clot score: 0: Normal milk; 1: Flakes; 2: Less than 10 clots from the quarter on the CMT paddle; 3: Greater than 10 clots from the quarter on the CMT paddle; 4: Severe visible clots
# From the text: Recombinant human fibrinogen has been produced in the milk of transgenic cows for some years now. […] To score the level of clotting and to measure any effects, standards were set to determine whether treatment of the cows to reduce clotting was indeed effective. The standards are provided in Table I. Score level 0 is equal to normal milk from non-transgenic cows, whereas score level 4 equals a dramatic level of clotting and the milking machine is unable to extract the milk from the teat. CMT stands for ‘California Mastitis Test’ and is a standard cow side test that screens for the presence of mastitis, a known cause of milk clotting. When a cow is milked, the milk is collected in a so-called CMT paddle, which has four cups corresponding to the four quarters of the udder. To these cups, equal amounts of CMT solution (made up of a detergent to break down cell walls, a compound that reacts with the cellular DNA and a pH indicator; California Mastitis Test kit, TechniVet, Brunswick, Me.) is added after which the solution is swirled. The CMT solution provides an estimate of the number of cells in the milk (inflammatory cells due to infection by mastitis). As the cell content increases the mixture becomes thick and gel-like and the results are based on the appearance of the solutions. ‘Negative’ in the mastitis test means that the mixture remains fluid; ‘suspicious’ means that the mixture becomes slimy or gel like, and ‘positive’ means that the mixture distinctly forms a gel or jelly. […] The lack of mastitis was also confirmed by the fact that in laboratory tests no inflammatory-inducing bacteria were grown from the rhFib transgenic cow milk. Finally the clinical signs of the cows confirmed that infectious mastitis was not the etiology of the clotting. […] The (blue) staining by the CMT solution provided a useful tool to visualize the clots and helped to distinguish between some of the low scores of rate 1 and 2.
# A cow's udder has four quarters, each with their own teat. A cow may loose a quarter due to mastitis but still give milk through the remaining quarters. […] Therefore at each milking period, each quarter was given a clot score and recorded on her milk sheet form. The highest score on the paddle for each day was considered the cow's score for that day when complying the clotting data.
# With natural lactation, it is common for cattle to develop swelling and edema in their udders around the time of calving and as they “come into milk” during the first few weeks of lactation. This inflammation of the mammary tissue may activate the rhFib and lead to precipitation within the mammary tissue. This then may lead to a decrease in the milk production and difficulty in removing the milk from the gland. It was hypothesized by the inventors that by a non-natural lactation (that is: by a chemical/hormonal lactation induction), this udder swelling and edema would be avoided and the rhFib would not be activated. This would facilitate an easier lactation with minimal precipitation. For this reason, lactation induction was chosen to produce rhFib in cow #13.
# After this, all clot scores remained between 0-1. […] This dose was maintained during day 17 to day 31 and all clot scores still remained between 0-1.
# Seven transgenic rhFib cattle were induced to lactate using an estradiol-progesterone alcohol solution and dexamethasone injections as outlined above. From these seven animals, after an initial 34 days of milking, five transgenic cattle were selected to complete an ongoing 16 week lactation period (146 days in total). During this 16 week period 5 liters of milk was saved per animal per week for future production purposes. If an animal was to develop consistent clotting within this production period then a treatment trial with warfarin would begin. Data was collected on these animals to see what level of clot scores they generally reached. […]
# [6] = test system: clot formation in the milk of a transgenic cow; test: Heparin therapy in one transgenic cow, clot scores; assay type: in vivo
# Method: The inventors also used heparin therapy in one transgenic cow to evaluate if it would prevent clot formation at a dose of 150 IU/kg SQ twice a day, for 5 days. While when the heparin was administered to this cow, the clot scores decreased. […] However, due to the high costs of using heparin, that treatment was not further investigated. Other anticoagulants can be used but many have the disadvantage that they need to be injected intravenously or subcutaneously rather than be or administered orally.
molecule,measurement,setting,value
CC(=O)CC(c1ccccc1)c1c(O)c2ccccc2oc1=O (centres unmarked) [warfarin],adverse reactions from the warfarin treatment,[1]; 0.10 to max 0.15 mg/kg,did not show any adverse reactions
same,highest clot scores,[1]; after a few days of warfarin 0.10 mg/kg,0-1
same,adverse effects,"[2]; cow #4289, 120 mg/day (~0.17 mg/kg) orally for 17 days",no adverse effects were observed
same,adverse effects,"[2]; cow #4289, 130 mg/day (~0.18 mg/kg) orally for 6 days, animal euthanized",developed a bleeding hematoma over the shoulder/thorax
same,days of therapy for the PT times to double,"[2]; cow #6685, 100 mg/day (~0.18 mg/kg)",6 days
same,adverse effects,"[2]; cow #6685, 100 mg/day (~0.18 mg/kg) orally for 14 days",No adverse affects were found
same,rhFib level,[3]; heifer 462,1.3 mg/ml raw milk and 2.09 mg/ml raw milk
same,rhFib level,[3]; heifer 463,1.61 mg/ml raw milk
same,rhFib level,[3]; heifer 474,0.41 mg/ml raw milk and 0.58 mg/ml raw milk
same,concentration of rhFib in milk over time upon warfarin treatment,"[3]; three warfarin-treated heifers, while clot score levels drop",seem to increase
same,LD50 for cattle,[4],200 mg/kg/day
same,clot scores,"[5]; #462 and #463, dry off period after warfarin stopped",3 (Greater than 10 clots from the quarter on the CMT paddle)
same,clot score,"[5]; #462 at day 125, single score during treatment",1
same,clot scores,"[5]; #462 at day 149, after warfarin stopped at day 142, milk started to plug the filters",1
same,clot scores,"[5]; #463 at day 161, single quarter, after warfarin stopped at day 142",1
same,time until clot scores increased to level 3 after warfarin was stopped,"[5]; #474, stopped at day 142 of milking",≤ 3 days
same,"Highest clot score, #474 Frey","[5]; after discontinuation of warfarin on day 142 of lactation, lines = week of lactation",3* (Greater than 10 clots from the quarter on the CMT paddle)
same,clot scores,"[5]; cow #13, 0.12 mg/kg, day 17 to day 31",0-1
same,adverse effects,"[5]; cow #13, 0.12 or 0.13 mg/kg per day",No adverse effects were observed
same,clot scores,"[5]; cow #13, 7 days after warfarin therapy was re-initiated",1
same,clot scores,"[5]; cow #13, 18 days after warfarin was again discontinued, until dried off",2 (Less than 10 clots from the quarter on the CMT paddle)
same,clot scores,"[5]; cow #13, induced lactation, 0.13 mg/kg orally once a day from Time 0",0-1
same,clot scores,"[5]; cow #13, over the next 11 days after re-initiation",0
same,clot scores,"[5]; cow #13, warfarin discontinued for 19 days",2 (Less than 10 clots from the quarter on the CMT paddle)
same,clot scores reached with warfarin treatment,"[5]; cow #13, within a week (conclusion)",0-1
same,clot scores,"[5]; three heifers #462, #463, #474, within a week after warfarin therapy was initiated",1
same,PT times equal to or above twice the baseline value,"[5]; three rhFib-transgenic heifers, 0.10 mg/kg daily, PT monitored weekly",did not occur
heparin,clot scores,"[6]; 150 IU/kg SQ twice a day for 5 days, during administration",decreased
same,clot scores,[6]; after heparin therapy was discontinued,remained low and decreased further with time
